Data taken from patent publication US8350062B2, “Synthesis and anticancer activity of new actin-targeting small-molecule agents” (priority 2009, dated 2013).

Experiments:
F-actin in A549 cells = assay: Fluorescent visualization of F-actin in A549 cells (Alexa Fluor 488 phalloidin); type: cell-based, human
Protocol: The presence of the enone increased the severing efficiency of the analogs three-fold. […] We determined whether it was the depletion of actin filaments by analogs 2-5 which was responsible for the growth inhibition of A549 cells. Each of the compounds was incubated with A549 cells for 2 h at a concentration that exceeded the GI50 value by a factor of 5. The cells were then fixed, permeabilized and filamentous actin was visualized by fluorescence microscopy following Alexa Fluor 488 phalloidin staining. […] They induced depolymerization at 150 nM for bistramide A (1), 500 nM for analog 2 and 2 μM for analog 3. Analogs 4 and 5 induced depolymerization of actin only at concentrations as high as 100 μM. […] This observation was consistent with the enhanced cell-based activity of the compounds containing the C(1)-C(4) enone moiety.
Fluorescent Visualization Of F-Actin In Cells. A549 cells grown on coverslips were incubated with analogs 4-8 (100 μM) analog 3 (2 μM) or analog 2 (500 nM) or bistramide A (150 nM) in F-12K cell culture medium for 2 h, fixed with 3% formaldehyde in PBS at 25° C. for 5 min and permeabilized with 0.1% Triton X-100 at 25° C. for 10 min. After washing with PBS, coverslips were stained with Alexa Fluor 488 Phalloidin and visualized by fluorescence microscopy.

SK-OV-3 = assay: NCI 60 cell line single dose screen; type: cell-based, human; details: SK-OV-3 (Ovarian Cancer), 10 micromolar, 48 h
Procedure, shortened: (§1)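 Cells were plated at 5,000 to 40,000 cells/well, grown 24 h, then exposed to compound at 10 uM for 48 h at 37° C. After TCA fixation they were stained with sulforhodamine B and read at 515 nm, with percentage growth derived relative to time-zero and untreated plates.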

CCRF-CEM = assay: NCI 60 cell line single dose screen; type: cell-based, human; details: CCRF-CEM (Leukemia), 10 micromolar, 48 h
Procedure, shortened: as §1

MDA-MB-435 = assay: NCI 60 cell line single dose screen; type: cell-based, human; details: MDA-MB-435 (Melanoma), 10 micromolar, 48 h
Procedure, shortened: as §1

HCT-116 = assay: NCI 60 cell line single dose screen; type: cell-based, human; details: HCT-116 (Colon Cancer), 10 micromolar, 48 h
Procedure, shortened: as §1

BT-549 = assay: NCI 60 cell line single dose screen; type: cell-based, human; details: BT-549 (Breast Cancer), 10 micromolar, 48 h
Procedure, shortened: as §1

SF-268 = assay: NCI 60 cell line single dose screen; type: cell-based, human; details: SF-268 (CNS Cancer), 10 micromolar, 48 h
Procedure, shortened: as §1

CAKI-1 = assay: NCI 60 cell line single dose screen; type: cell-based, human; details: CAKI-1 (Renal Cancer), 10 micromolar, 48 h
Procedure, shortened: as §1

SNB-75 = assay: NCI 60 cell line single dose screen; type: cell-based, human; details: SNB-75 (CNS Cancer), 10 micromolar, 48 h
Procedure, shortened: as §1

filamentous actin = filamentous actin (Oryctolagus cuniculus, UniProt P68135); assay: TIRF microscopy of Oregon green-labeled actin filaments with analog 10; type: biochemical; details: 1.5 μM solution
Protocol: Encouraged by the initially observed potent G-actin binding affinity of 10, we next employed time-lapse total internal reflection fluorescence (TIRF) microscopy to examine the effects of this compound on depolymerization of filamentous actin in vitro. We initially assembled individual actin filaments by elongating them from a pool of 1.0 μM Mg-ATP-actin monomers supplemented with a trace of […] Mg-ATP-actin monomers labeled with Oregon green for visualization. The resulting filaments were incubated with either a solution of buffer or a 1.5 μM solution of 10 and imaged with TIRF microscopy. […] Similar to our previous observations, the mechanism of actin depolymerization by 10 entailed formation of multiple filaments breaks, which in turn created subsequent points for actin disassembly.

COCCC(=O)NC[C@H](O)[C@H](C)C(=O)NCCC[C@H]1O[C@@]2(CCC[C@@H](CC[C@H](C)/C=C(\C)[C@H](C)O)O2)CCC1C (some centres unmarked) [Analog 10]
F-actin depolymerization in A549 cells (F-actin in A549 cells): depolymerized F-actin in A549 cells in a dose-dependent manner
concentration at which noticeable actin disassembly was detected (F-actin in A549 cells; A549 cells): 250 nM
Growth Percent (SK-OV-3): 59.10%
Growth Percent (CCRF-CEM): 24.00%
Growth Percent (MDA-MB-435): 72.88%
Growth Percent (HCT-116): 55.84%
Growth Percent (BT-549): 29.35%
Growth Percent (SF-268): 37.08%
Growth Percent (CAKI-1): −37.52%
Growth Percent (SNB-75): 6.67%
effect on F-actin filaments (filamentous actin): rapid filament disassembly
